Results reported in PMC7979765, “trans-Translation inhibitors bind to a novel site on the ribosome and clear Neisseria gonorrhoeae in vivo” (Nature Communications, 2021).
Values joined by “and” are separate entries in the source; they are usually repeats but may differ in a detail not shown here. Identical values can stand only once. Like-named read-outs stand apart in the source and are kept apart here.

Test: Pharmacokinetic analyses in mice (PO suspension, IV, SC)
Assay type: in vivo, mouse
Method: Female CD-1 mice as above were fasted for 2 h prior, and 4 h after dosing. […] […], 3 mice from each group were euthanized by CO2 inhalation, blood was collected by cardiac puncture into K2EDTA collection tubes, and protein was precipitated and analysed by LC/MS-MS for plasma concentrations of MBX-4132. Data were analysed using WinNonLin.
[…] At 0.083, 0.5, 1, 4, 8 and 24 h post dose, blood was collected from 3 mice/group by tail vein or facial bleed into K2EDTA collection tubes, and protein was precipitated and analysed by LC/MS-MS for plasma concentrations of MBX-4132. Sampling was performed serially, with each mouse contributing sample at all time points. Data were analysed using WinNonLin.

## O=C(Nc1nnc(-c2ccc(F)cc2)o1)N1CCc2ccccc2C1 [MBX 4132]
IV (10 mg/kg), 0.083 hrs, individual animals, 10 mg/kg
  MBX 4132 Concentrations in Mouse Plasma: 58700 ng/mL and 65700 ng/mL
IV (10 mg/kg), 0.5 hrs, individual animals, 10 mg/kg
  MBX 4132 Concentrations in Mouse Plasma: 36200 ng/mL and 32000 ng/mL
IV (10 mg/kg), 1 hrs, individual animals, 10 mg/kg
  MBX 4132 Concentrations in Mouse Plasma: 22900 ng/mL and 20200 ng/mL
IV (10 mg/kg), 4 hrs, individual animals, 10 mg/kg
  MBX 4132 Concentrations in Mouse Plasma: 8580 ng/mL and 6390 ng/mL
IV (10 mg/kg), 8 hrs, individual animals, 10 mg/kg
  MBX 4132 Concentrations in Mouse Plasma: 3980 ng/mL and 3290 ng/mL
IV (10 mg/kg), 24 hrs, individual animals, 10 mg/kg
  MBX 4132 Concentrations in Mouse Plasma: 293 ng/mL and 149 ng/mL and 67.4 ng/mL
PO (10 mg/kg susp.), 0.25 hrs, individual animals, 10 mg/kg
  MBX 4132 Concentrations in Mouse Plasma: 15389 ng/mL and 9102 ng/mL
PO (10 mg/kg susp.), 0.5 hrs, individual animals, 10 mg/kg
  MBX 4132 Concentrations in Mouse Plasma: 16019 ng/mL and 12183 ng/mL
PO (10 mg/kg susp.), 1 hrs, individual animals, 10 mg/kg
  MBX 4132 Concentrations in Mouse Plasma: 16437 ng/mL and 15902 ng/mL
PO (10 mg/kg susp.), 2 hrs, individual animals, 10 mg/kg
  MBX 4132 Concentrations in Mouse Plasma: 10997 ng/mL and 18067 ng/mL
PO (10 mg/kg susp.), 4 hrs, individual animals, 10 mg/kg
  MBX 4132 Concentrations in Mouse Plasma: 13379 ng/mL and 14121 ng/mL
PO (10 mg/kg susp.), 8 hrs, individual animals, 10 mg/kg
  MBX 4132 Concentrations in Mouse Plasma: 11230 ng/mL and 9243 ng/mL
PO (10 mg/kg susp.), 24 hrs, individual animals
  MBX 4132 Concentrations in Mouse Plasma: <62.5 ng/mL
PO (10 mg/kg), 0.083 hrs, individual animals, 10 mg/kg
  MBX 4132 Concentrations in Mouse Plasma: 809 ng/mL and 1080 ng/mL and 1900 ng/mL
PO (10 mg/kg), 0.5 hrs, individual animals, 10 mg/kg
  MBX 4132 Concentrations in Mouse Plasma: 881 ng/mL and 1440 ng/mL and 1770 ng/mL
PO (10 mg/kg), 1 hrs, individual animals, 10 mg/kg
  MBX 4132 Concentrations in Mouse Plasma: 1490 ng/mL and 1730 ng/mL
PO (10 mg/kg), 4 hrs, individual animals, 10 mg/kg
  MBX 4132 Concentrations in Mouse Plasma: 1960 ng/mL and 2880 ng/mL
PO (10 mg/kg), 8 hrs, individual animals, 10 mg/kg
  MBX 4132 Concentrations in Mouse Plasma: 4940 ng/mL and 6040 ng/mL
PO (10 mg/kg), 24 hrs, individual animals, 10 mg/kg
  MBX 4132 Concentrations in Mouse Plasma: 66.5 ng/mL and 26.0 ng/mL and 81.5 ng/mL
SC (10 mg/kg), 0.083 hrs, individual animals, 10 mg/kg
  MBX 4132 Concentrations in Mouse Plasma: 738 ng/mL and 530 ng/mL and 1090 ng/mL
SC (10 mg/kg), 0.5 hrs, individual animals, 10 mg/kg
  MBX 4132 Concentrations in Mouse Plasma: 3760 ng/mL and 4140 ng/mL
SC (10 mg/kg), 1 hrs, individual animals, 10 mg/kg
  MBX 4132 Concentrations in Mouse Plasma: 3190 ng/mL and 3390 ng/mL
SC (10 mg/kg), 4 hrs, individual animals, 10 mg/kg
  MBX 4132 Concentrations in Mouse Plasma: 2890 ng/mL and 2390 ng/mL
SC (10 mg/kg), 8 hrs, individual animals, 10 mg/kg
  MBX 4132 Concentrations in Mouse Plasma: 2800 ng/mL and 2480 ng/mL
SC (10 mg/kg), 24 hrs, individual animals, 10 mg/kg
  MBX 4132 Concentrations in Mouse Plasma: 599 ng/mL and 627 ng/mL
SC (25 mg/kg), 0.083 hrs, individual animals, 25 mg/kg
  MBX 4132 Concentrations in Mouse Plasma: 1190 ng/mL and 2170 ng/mL
SC (25 mg/kg), 0.5 hrs, individual animals, 25 mg/kg
  MBX 4132 Concentrations in Mouse Plasma: 3170 ng/mL and 5250 ng/mL and 6610 ng/mL
SC (25 mg/kg), 1 hrs, individual animals, 25 mg/kg
  MBX 4132 Concentrations in Mouse Plasma: 5270 ng/mL and 5450 ng/mL
SC (25 mg/kg), 4 hrs, individual animals, 25 mg/kg
  MBX 4132 Concentrations in Mouse Plasma: 3050 ng/mL and 3600 ng/mL
SC (25 mg/kg), 8 hrs, individual animals, 25 mg/kg
  MBX 4132 Concentrations in Mouse Plasma: 3850 ng/mL and 4860 ng/mL
SC (25 mg/kg), 24 hrs, individual animals, 25 mg/kg
  MBX 4132 Concentrations in Mouse Plasma: 2190 ng/mL and 1680 ng/mL
female, CD-1, mouse, in vivo, iv, 10 mg/kg, IV (10 mg/kg), 24 hrs, mean of 3 animals, read-out: MBX 4132 Concentrations in Mouse Plasma, Mean
  concentration at 24 h: 170 ng/mL
female, CD-1, mouse, in vivo, po, 10 mg/kg, PO (10 mg/kg susp.), 0.25 hrs, individual animals, read-out: MBX 4132 Concentrations in Mouse Plasma
  concentration at 0.25 h: 14300 ng/mL
female, CD-1, mouse, in vivo, po, 10 mg/kg, PO (10 mg/kg susp.), 0.25 hrs, mean of 3 animals, read-out: MBX 4132 Concentrations in Mouse Plasma, Mean
  concentration at 0.25 h: 12900 ng/mL
female, CD-1, mouse, in vivo, po, 10 mg/kg, PO (10 mg/kg susp.), 0.5 hrs, individual animals, read-out: MBX 4132 Concentrations in Mouse Plasma
  concentration at 0.5 h: 13900 ng/mL
female, CD-1, mouse, in vivo, po, 10 mg/kg, PO (10 mg/kg susp.), 0.5 hrs, mean of 3 animals, read-out: MBX 4132 Concentrations in Mouse Plasma, Mean
  concentration at 0.5 h: 14000 ng/mL
female, CD-1, mouse, in vivo, po, 10 mg/kg, PO (10 mg/kg susp.), 1 hrs, individual animals, read-out: MBX 4132 Concentrations in Mouse Plasma
  concentration at 1 h: 12100 ng/mL
female, CD-1, mouse, in vivo, po, 10 mg/kg, PO (10 mg/kg susp.), 1 hrs, mean of 3 animals, read-out: MBX 4132 Concentrations in Mouse Plasma, Mean
  concentration at 1 h: 14800 ng/mL
female, CD-1, mouse, in vivo, po, 10 mg/kg, PO (10 mg/kg susp.), 2 hrs, individual animals, read-out: MBX 4132 Concentrations in Mouse Plasma
  concentration at 2 h: 15000 ng/mL
female, CD-1, mouse, in vivo, po, 10 mg/kg, PO (10 mg/kg susp.), 2 hrs, mean of 3 animals, read-out: MBX 4132 Concentrations in Mouse Plasma, Mean
  concentration at 2 h: 14700 ng/mL
female, CD-1, mouse, in vivo, po, 10 mg/kg, PO (10 mg/kg susp.), 4 hrs, individual animals, read-out: MBX 4132 Concentrations in Mouse Plasma
  concentration at 4 h: 13300 ng/mL
female, CD-1, mouse, in vivo, po, 10 mg/kg, PO (10 mg/kg susp.), 4 hrs, mean of 3 animals, read-out: MBX 4132 Concentrations in Mouse Plasma, Mean
  concentration at 4 h: 13600 ng/mL
female, CD-1, mouse, in vivo, po, 10 mg/kg, PO (10 mg/kg susp.), 8 hrs, individual animals, read-out: MBX 4132 Concentrations in Mouse Plasma
  concentration at 8 h: 9290 ng/mL
